Counter-ions that a name gives are not always drawn.

One assay deals with T1, 1N4R p-tau.
T1 construct: made in house; host or cells: E. coli (PIMAX system)
Briefly: p-tau aggregation modulator screen of 1280-compound library (ThS fluorescence net change over 16 h).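 As to ThS net change: 30 µM compound with 6 µM p-tau over 16 h.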 Set-up: key to PTAI>3SD: *: PTAI>3SD. Type of assay: biochemical.
Conditions: not given
`Cc1ccc(Cl)c(Nc2ccccc2C(=O)[O-])c1Cl.O.[Na+]` had a ThS net change of 436.

Compound `CN1CCc2cccc3c2[C@H]1Cc1ccc(O)c(O)c1-3.CN1CCc2cccc3c2[C@H]1Cc1ccc(O)c(O)c1-3.Cl.Cl.O` showed a ThS net change of 233. The same measure, in the same setting: next, `CC(=O)NC1CCSC1=O` (racemic) [N-Acetyl-DL-homocysteine Thiolactone]: 421. In turn, `C[C@]12CCC3[C@@H](CC[C@@H]4C[C@H](O)CC[C@]34C)[C@@H]1CCC2=O` (stereo partly drawn) [3-alpha-Hydroxy-5-beta-androstan-17-one] showed a ThS net change of 426. Same read-out and setting: next, `Nc1ccc(C(=O)O)c(O)c1` [4-aminosalicylic acid]: 428; `CN1CC[C@@]2(C)c3cc(O)ccc3N(C)[C@H]12.O=C(O)/C=C/C(=O)O` [(-)-Eseroline fumarate salt]: 309; `COc1ccc2cc([C@@H](C)C(=O)[O-])ccc2c1.[Na+]` [(R) -Naproxen sodium salt]: 376.

Turning to `CC(C)NC[C@@H](O)COc1cccc2ccccc12.Cl` [(R)-Propranolol hydrochloride], the ThS net change was determined as 416. `CC(C)NC[C@H](O)COc1cccc2ccccc12` [(S)-propranolol hydrochloride] registered a ThS net change of 434.

Take `CC(=O)NCCCS(=O)(=O)O` [Acamprosate calcium]: the ThS net change came to 422. The same measure, in the same setting: next, `COc1cc(C)c(/C=C/C(C)=C/C=C/C(C)=C/C(=O)O)c(C)c1C` [Acitretin]: 316; `CCCSc1ccc2nc(NC(=O)OC)[nH]c2c1` [Albendazole]: 324.

The same assay, now with this note: 1280-compound library screen; ThS fluorescence net change over 16 h.
Compound `Cl.Cl.Cl.Cl.Cl.NCCNCCNCCNCCN` showed a ThS net change of 394.

In turn, `CC=CC(=O)N(CC)c1ccccc1C` (mixture of isomers) [Crotamiton] displayed a ThS net change of 386. Still for that read-out and setting: then `CN(N=O)C(=O)N[C@H]1C(O)O[C@H](CO)[C@@H](O)[C@@H]1O` (mixture of isomers) [Streptozotocin], with 384; and `NCC(CC(=O)O)c1ccc(Cl)cc1` (racemic) [Baclofen (R,S)], with 407. The same measure, in the same setting: then `CC(C)(S)C(N)C(=O)O` (racemic) [D,L-Penicillamine], with 385; and `COCCc1ccc(OCC(O)CNC(C)C)cc1.COCCc1ccc(OCC(O)CNC(C)C)cc1.O=C(O)C(O)C(O)C(=O)O` (racemic) [Metoprolol-(+,-) (+)-tartrate salt], with 390; and `CC(C)NCC(O)COc1ccc(CC(N)=O)cc1` (stereo in doubt) [(R)-(+)-Atenolol], with 395. Same read-out and setting: next, `NC1CONC1=O` (stereo in doubt) [(S)-(-)-Cycloserine]: 391.

Consider `Clc1cnccn1` [2-Chloropyrazine], for which the ThS net change was determined as 410.

In turn, `CC(C)(C)NC[C@H](O)COc1cccc2c1CCCC2=O.Cl` [(-) -Levobunolol hydrochloride] gave a ThS net change of 397. On the same count and under the same terms, then `CC(C)NC[C@H](O)c1ccc(O)c(O)c1.Cl` [(-)-Isoproterenol hydrochloride], with 400.

`CCCC(=O)Nc1ccc(OCC(O)CNC(C)C)c(C(C)=O)c1` (stereo not shown) [Acebutolol hydrochloride] displayed a ThS net change of 381. Still for that read-out and setting: then `O=C(O)COC(=O)Cc1ccccc1Nc1c(Cl)cccc1Cl` [Aceclofenac], with 390; and `CC(=O)Nc1ccc(O)cc1` [Acetaminophen], with 385.

The assay is the same for the next values; noted with them: 1280-compound library screen; […].
`CNCC(O)c1ccc(O)cc1` (racemic) [(+,-)-Synephrine] showed a ThS net change of 410.

For `CC(=O)OC1CN2CCC1CC2` (stereo not shown) [Aceclidine Hydrochloride], the ThS net change is on record as 409.

The assay is the same for the next values; noted with them: flag: p-tau aggregation inhibitor, ThS net change more than 3 SD from mean.
Take `O=C1c2cccc(O)c2C(=O)c2c(O)cccc21` [1,8-Dihydroxyanthraquinone]: the “PTAI>3SD” value was “*”.

The assay is the same for the next values; noted with them: library screen, ThS fluorescence net change over 16 h with p-tau.
As to `COC(=O)C1=C(C)NC(C)=C(C(=O)O[C@@H]2CCCN(Cc3ccccc3)C2)[C@@H]1c1cccc([N+](=O)[O-])c1.Cl` (racemic) [Benidipine hydrochloride], the ThS net change is given as 259. `O=C1c2cccc(O)c2C(=O)c2c(O)cccc21` [1,8-Dihydroxyanthraquinone] yielded a ThS net change of 25. Still for that read-out and setting: then `CC(=O)c1ccc2c(c1)N(CCCN(C)C)c1ccccc1S2.O=C(O)/C=C\C(=O)O` [Acetopromazine maleate salt], with 267.

As for `CCN(CC)CCOC(=O)C(c1ccccc1)c1ccccc1` [Adiphenine hydrochloride], the ThS net change is 318.

Still in this assay, the particulars now being: p-tau aggregation modulator screen of 1280-compound library; ThS fluorescence net change.
`CC(C)NCC(O)c1cc(O)cc(O)c1.CC(C)NCC(O)c1cc(O)cc(O)c1.O=S(=O)(O)O` (stereo not shown) yielded a ThS net change of 362. On the same count and under the same terms, then `Cl.Cl.c1ccc2c(c1)CCCc1cc(NCCN3CCOCC3)nnc1-2`, with 345. The same measure, in the same setting: next, `O=C(O)Cc1cc(I)c(Oc2ccc(O)c(I)c2)c(I)c1`: 369; `CN(Cc1cnc2nc(N)nc(N)c2n1)c1ccc(C(=O)NC(CCC(=O)O)C(=O)O)cc1` (racemic) [Amethopterin (R,S)]: 373; `CC(C)NCC(O)COc1ccc(CC(N)=O)cc1` (stereo in doubt) [(S)-(-)-Atenolol]: 363. Same read-out and setting: then `CC(C)(C)NC[C@@H](O)COc1cccc2c1CCCC2=O.Cl` [(+) -Levobunolol hydrochloride], with 350.

`CC(C)NC[C@@H](O)c1ccc(O)c(O)c1.O=C(O)C(O)C(O)C(=O)O` [(+)-Isoproterenol (+)-bitartrate salt] displayed a ThS net change of 345. Same read-out and setting: then `Nc1nc(=O)n([C@@H]2CS[C@H](CO)O2)cc1F` [(-)-Emtricitabine], with 359.

In the case of `Nc1nc(NC2CC2)c2ncn([C@H]3C=C[C@@H](CO)C3)c2n1` [Abacavir Sulfate], the ThS net change was 363.

`COc1ccc2c(c1)c(CC(=O)OCC(=O)O)c(C)n2C(=O)c1ccc(Cl)cc1` [Acemetacin] registered a ThS net change of 349. The compound `CC(=O)c1ccc(S(=O)(=O)NC(=O)NC2CCCCC2)cc1` [Acetohexamide] came in with a ThS net change of 360.

The compound `CC(=O)Oc1ccccc1C(=O)Oc1ccccc1C(=O)O` [Acetylsalicylsalicylic acid] had a ThS net change of 363.

The compound `Cc1cnc(C(=O)O)c[n+]1[O-]` [Acipimox] showed a ThS net change of 369. The same measure, in the same setting: next, `Nc1nc2c(ncn2COCCO)c(=O)[nH]1` [Acyclovir]: 367.

Still in this assay, the particulars now being: p-tau aggregation modulator screen of 1280-compound library; […].
Take `Br.COc1ccc2c(c1)[C@]13CCCC[C@@H]1[C@H](C2)N(C)CC3.O`: the ThS net change came to 372. The same measure, in the same setting: then `COc1cc2c(cc1OC)C(C)NCC2.Cl` (stereo not shown), with 359; and `C[C@@]12N[C@@H](Cc3ccccc31)c1ccccc12.O=C(O)/C=C\C(=O)O` [(-)-MK 801 hydrogen maleate], with 354; and `Nc1ncnc2c1ncn2[C@@H]1O[C@H](COP(=O)(O)O)[C@@H](O)[C@H]1O.O` [Adenosine 5'-monophosphate monohydrate], with 369. The same measure, in the same setting: next, `C[C@]12CCC(=O)C=C1CC[C@@H]1[C@@H]2C(=O)C[C@]2(C)C(=O)CC[C@@H]12` [Adrenosterone]: 334.

Staying with this assay, now noted: p-tau aggregation modulator screen of the compound library, ThS fluorescence net change.
Consider `CC=CC1=C(C(=O)O)N2C(=O)[C@@H](NC(=O)[C@H](N)c3ccc(O)cc3)[C@H]2SC1` (mixture of isomers) [Cefprozil], for which the ThS net change was found to be 440. `CCCCC(C)(O)C/C=C/[C@H]1[C@H](O)CC(=O)[C@@H]1CCCCCCC(=O)OC` (mixture of isomers) [Misoprostol] came in with a ThS net change of 495. The compound `C#C[C@]1(OC(C)=O)CC[C@H]2[C@@H]3CCC4=CC(=NO)CC[C@@H]4[C@H]3CC[C@@]21CC` (mixture of isomers) [Norgestimate] had a ThS net change of 486.

Compound `Cl.NCC(O)c1ccc(O)cc1` (racemic) [(+,-)-Octopamine hydrochloride] gave a ThS net change of 413. `OCC(O)CN1CCN(c2ccccc2)CC1` (racemic) [Dropropizine (R,S)] had a ThS net change of 418. The same measure, in the same setting: next, `Nc1c2c(nc3ccccc13)CCCC2O.O=C(O)/C=C\C(=O)O` (racemic) [Hydroxytacrine maleate (R,S)]: 423; `Nc1ccccc1S(N)(=O)=O` [2-Aminobenzenesulfonamide]: 430.

In the case of `O=c1[nH]cc(F)c(=O)[nH]1` [5-fluorouracil], the ThS net change is 471. Same read-out and setting: next, `c1coc(CNc2ncnc3nc[nH]c23)c1` [6-Furfurylaminopurine]: 413; `C[C@H]1O[C@H](O[C@H]2[C@H](O)[C@@H](O)[C@@H](O[C@H]3[C@H](O)[C@@H](O)C(O)O[C@@H]3CO)O[C@@H]2CO)[C@H](O)[C@@H](O)[C@@H]1N[C@H]1C=C(CO)[C@@H](O)[C@H](O)[C@H]1O` (stereo partly shown) [Acarbose]: 414; `Cn1c(=O)c2c(ncn2CC(=O)O)n(C)c1=O` [Acefylline]: 416. Still for that read-out and setting: next, `CC(=O)CC(c1ccc([N+](=O)[O-])cc1)c1c(O)c2ccccc2oc1=O` (stereo not shown) [Acenocoumarol]: 568; `CC(=O)Nc1nnc(S(N)(=O)=O)s1` [Acetazolamide]: 429.

Consider `CC(=O)N[C@@H](CS)C(=O)O` [Acetylcysteine], for which the ThS net change is reported as 423. Still for that read-out and setting: next, `CC(=O)Oc1ccccc1C(=O)O` [Acetylsalicylic acid]: 492; `CC(=O)Nc1ccc(CC(=O)O)cc1` [Actarit]: 435.

For the compound `NC12CC3CC(CC(C3)C1)C2.NC12CC3CC(CC(C3)C1)C2.O=C(O)/C=C/C(=O)O` [Adamantamine fumarate], the ThS net change was 423.

Compound `COc1ccc(-c2ccc3cc(C(=O)O)ccc3c2)cc1C12CC3CC(CC(C3)C1)C2` [Adapalene] gave a ThS net change of 477.

(Values after publication PMC7539012, “Hyperphosphorylated tau aggregation and cytotoxicity modulators screen identified prescription drugs linked to Alzheimer's disease and cognitive functions” (Scientific Reports, 2020).)
